Measured values reported in publication PMC6639853, “Deciphering Direct and Indirect Effects of Neurokinin B and GnRH in the Brain-Pituitary Axis of Tilapia” (Frontiers in Endocrinology, 2019).
Values joined by “and” are separate entries in the source; they are usually repeats but may differ in a detail not shown here. Equal values may be shown once. Read-outs that look alike come from different tables or passages of the source. Starred links: 1 amine or outer side, 2 acyl side, 3 side chain; linkers in the order of their positions; H or OH if unused. Non-standard residues stand in square brackets, D forms with d. Residues, ends and D or L forms follow the SMILES beside them. NMeI = CC[C@H](C)[C@H](NC)C(=O)O; Suc = O=C(CCC(=O)[*:2])[*:1]; NMeV = CN[C@H](C(=O)O)C(C)C

Assays:
tiTac3ra = tiTac3ra (Oreochromis niloticus, UniProt A0A075QPN8); test: cell-based; settings: COS-7 cells, mean ± SEM
Excerpt: (§2) Receptor transactivation assays were generally performed according to Biran et al. ([10]). Briefly, in order to study the signaling pathways of the novel fish NKB and NKF analogs, the entire coding sequence of tiTac3ra (GenBank accession no. KF471674), tiTac3rb (GenBank accession no. KF471675), zfTac3ra (GenBank accession no. JF317292) and zfTac3rb (GenBank accession no. JF317293) were inserted into pcDNA3.1 (Invitrogen). To differentiate between the protein kinase A (PKA) and PKC signal transduction pathways, we used a sensitive luciferase (Luc) reporter gene assay. […] Three micrograms of each construct together with three micrograms of a luciferase reporter plasmid were transiently co-transfected into COS-7 cells. […] EC50 values were calculated from dose response curves by means of computerized non-linear curve fitting on baseline-corrected (control) values using Prism version 6 software (GraphPad).

tiTac3rb = tiTac3rb (Oreochromis niloticus, UniProt A0A075QUD7); test: cell-based; settings: COS-7 cells, mean ± SEM
Excerpt: as §2

huTAC3R (NK3R) = target: T1, huTAC3R (NK3R) (Homo sapiens, UniProt P29371); test: CRE-/SRE-Luc receptor transactivation reporter assay in COS-7 cells, human TAC3R; assay type: cell-based; settings: mean ± SEM
T1 construct: host or cells: COS-7
T1 sequence (P29371 1-465): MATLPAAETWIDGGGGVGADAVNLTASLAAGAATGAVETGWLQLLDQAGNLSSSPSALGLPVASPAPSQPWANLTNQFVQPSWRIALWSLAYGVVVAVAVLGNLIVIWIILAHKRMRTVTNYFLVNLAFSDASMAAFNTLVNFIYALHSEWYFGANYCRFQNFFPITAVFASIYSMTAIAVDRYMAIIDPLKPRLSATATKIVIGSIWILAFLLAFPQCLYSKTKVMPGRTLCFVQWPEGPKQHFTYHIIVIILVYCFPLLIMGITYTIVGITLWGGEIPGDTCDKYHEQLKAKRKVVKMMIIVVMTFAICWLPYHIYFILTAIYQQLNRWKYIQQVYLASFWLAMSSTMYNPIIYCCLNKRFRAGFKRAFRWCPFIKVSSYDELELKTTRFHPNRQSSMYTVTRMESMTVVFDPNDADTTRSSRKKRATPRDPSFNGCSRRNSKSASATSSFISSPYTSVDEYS
Excerpt: (§1) Receptor transactivation assays were generally performed according to Biran et al. ([10]). Briefly, in order to study the signaling pathways of the novel fish NKB and NKF analogs, the entire coding sequence of tiTac3ra (GenBank accession no. KF471674), tiTac3rb (GenBank accession no. KF471675), zfTac3ra (GenBank accession no. JF317292) and zfTac3rb (GenBank accession no. JF317293) were inserted into pcDNA3.1 (Invitrogen). To differentiate between the protein kinase A (PKA) and PKC signal transduction pathways, we used a sensitive luciferase (Luc) reporter gene assay. […] The cDNA clone for human TAC3R was obtained from the Missouri S&T cDNA Resource Center (www.cdna.org). Three micrograms of each construct together with three micrograms of a luciferase reporter plasmid were transiently co-transfected into COS-7 cells. […] EC50 values were calculated from dose response curves by means of computerized non-linear curve fitting on baseline-corrected (control) values using Prism version 6 software (GraphPad).

zfTac3rb = target: T2, zfTac3rb (Danio rerio, UniProt F1R3V0); test: CRE-/SRE-Luc receptor transactivation reporter assay in COS-7 cells, zebrafish Tac3rb; assay type: cell-based; settings: mean ± SEM
T2 sequence (F1R3V0 1-395): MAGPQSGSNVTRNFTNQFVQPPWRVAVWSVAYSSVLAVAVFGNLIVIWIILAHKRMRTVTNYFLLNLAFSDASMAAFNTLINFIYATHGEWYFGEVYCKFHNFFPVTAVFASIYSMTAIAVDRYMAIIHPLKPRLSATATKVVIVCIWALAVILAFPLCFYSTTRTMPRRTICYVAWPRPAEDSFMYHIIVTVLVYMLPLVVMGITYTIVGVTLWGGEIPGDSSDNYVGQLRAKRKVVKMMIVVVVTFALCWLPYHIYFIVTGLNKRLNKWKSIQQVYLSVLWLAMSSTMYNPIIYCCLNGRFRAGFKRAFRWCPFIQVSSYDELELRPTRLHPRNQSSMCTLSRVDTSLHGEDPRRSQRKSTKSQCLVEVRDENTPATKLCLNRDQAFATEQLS
Excerpt: as §1

zfTac3ra = target: T3, zfTac3ra (Danio rerio, UniProt H6A6A7); test: CRE-/SRE-Luc receptor transactivation reporter assay in COS-7 cells, zebrafish Tac3ra; assay type: cell-based; settings: mean ± SEM
T3 sequence (H6A6A7 1-399): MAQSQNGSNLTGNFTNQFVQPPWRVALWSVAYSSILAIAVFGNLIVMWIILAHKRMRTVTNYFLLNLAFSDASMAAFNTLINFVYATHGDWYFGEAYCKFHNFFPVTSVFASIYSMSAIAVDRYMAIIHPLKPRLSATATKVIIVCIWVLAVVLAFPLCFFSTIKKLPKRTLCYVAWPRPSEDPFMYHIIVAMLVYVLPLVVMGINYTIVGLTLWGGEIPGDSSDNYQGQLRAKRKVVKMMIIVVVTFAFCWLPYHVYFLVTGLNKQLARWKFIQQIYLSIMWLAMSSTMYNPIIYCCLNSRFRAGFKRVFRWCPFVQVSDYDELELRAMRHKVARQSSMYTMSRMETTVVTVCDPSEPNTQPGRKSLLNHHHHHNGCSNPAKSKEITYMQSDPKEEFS
Excerpt: as §1

[1] = EC50 tiTac3ra CRE, CRE-Luc reporter (PKA/cAMP)
[2] = EC50 tiTac3ra SRE, SRE-Luc reporter (PKC/Ca2+)
[3] = EC50 tiTac3rb CRE, CRE-Luc reporter (PKA/cAMP)
[4] = EC50 tiTac3rb SRE, SRE-Luc reporter (PKC/Ca2+)
[5] = SRE-Luc reporter (PKC/Ca2+), read-out: EC50 huTAC3R (NK3R) SRE
[6] = CRE-Luc reporter (PKA/cAMP), read-out: EC50 huTAC3R (NK3R) CRE
[7] = CRE-Luc reporter (PKA/cAMP), read-out: EC50 zfTac3rb CRE
[8] = SRE-Luc reporter (PKC/Ca2+), read-out: EC50 zfTac3rb SRE
[9] = CRE-Luc reporter (PKA/cAMP), read-out: EC50 zfTac3ra CRE
[10] = SRE-Luc reporter (PKC/Ca2+), read-out: EC50 zfTac3ra SRE

Sequence of tiTac3rb (A0A075QUD7 1-361): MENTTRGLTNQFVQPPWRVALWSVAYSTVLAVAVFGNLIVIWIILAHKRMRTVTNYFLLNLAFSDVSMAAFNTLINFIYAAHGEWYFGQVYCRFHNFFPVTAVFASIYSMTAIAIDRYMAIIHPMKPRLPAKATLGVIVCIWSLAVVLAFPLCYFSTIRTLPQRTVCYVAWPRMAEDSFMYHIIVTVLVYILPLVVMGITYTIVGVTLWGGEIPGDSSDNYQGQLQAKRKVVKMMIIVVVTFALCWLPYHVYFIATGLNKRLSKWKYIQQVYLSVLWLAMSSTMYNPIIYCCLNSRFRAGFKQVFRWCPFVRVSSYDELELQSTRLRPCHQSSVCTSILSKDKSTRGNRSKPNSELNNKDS
Sequence of tiTac3ra (A0A075QPN8 1-415): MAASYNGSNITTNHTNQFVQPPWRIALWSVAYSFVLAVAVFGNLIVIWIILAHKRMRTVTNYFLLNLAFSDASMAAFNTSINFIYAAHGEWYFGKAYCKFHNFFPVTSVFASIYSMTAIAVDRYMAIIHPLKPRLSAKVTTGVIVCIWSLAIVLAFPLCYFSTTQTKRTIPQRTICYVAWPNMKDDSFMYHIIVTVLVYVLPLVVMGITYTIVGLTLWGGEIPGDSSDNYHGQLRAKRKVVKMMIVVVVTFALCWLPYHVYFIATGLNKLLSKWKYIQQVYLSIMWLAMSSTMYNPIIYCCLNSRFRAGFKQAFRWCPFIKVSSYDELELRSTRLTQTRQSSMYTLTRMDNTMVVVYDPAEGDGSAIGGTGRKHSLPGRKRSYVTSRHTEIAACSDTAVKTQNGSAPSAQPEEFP

| EC50 (huTAC3R (NK3R); [5]) [nM] | EC50 (huTAC3R (NK3R); [6]) [nM] | EC50 (zfTac3rb; [7]) [nM] | EC50 (zfTac3rb; [8]) [nM] | EC50 (zfTac3ra; [9]) | EC50 (zfTac3ra; [10]) [nM] | Compound | EC50 (tiTac3ra; [1]) [nM] | EC50 (tiTac3ra; [2]) | EC50 (tiTac3rb; [3]) [nM] | EC50 (tiTac3rb; [4]) [nM] |
| --- | --- | --- | --- | --- | --- | --- | --- | --- | --- | --- |
| 0.11 ± 0.3 | 1.71 ± 0.32 | 41.37 ± 0.18 | 1.1 ± 0.13 | 26.5 ± 0.38 nM | 139.6 ± 0.38 | CC[C@H](C)[C@H](NC(=O)[C@H](CC(=O)O)NC(=O)[C@H](Cc1c[nH]cn1)NC(=O)[C@H](CCSC)NC(=O)[C@@H](N)CCC(=O)O)C(=O)N[C@@H](Cc1ccccc1)C(=O)N[C@H](C(=O)NCC(=O)N[C@@H](CC(C)C)C(=O)N[C@@H](CCSC)C(N)=O)C(C)C [zfNKBa] (H-EMHDIFVGLM-NH2) | – | – | – | – |
| 18.7 ± 0.25 | 17.4 ± 0.15 | 101.4 ± 0.37 | 17.9 ± 0.43 | 0.94 nM and 0.948 nM | 84.98 ± 0.31 | CC[C@H](C)[C@H](NC(=O)CNC(=O)[C@@H](NC(=O)[C@@H](N)CO)[C@@H](C)O)C(=O)N[C@@H](CC(N)=O)C(=O)N[C@@H](CCCNC(=N)N)C(=O)N[C@@H](CCC(=O)O)C(=O)N[C@@H](C)C(=O)N[C@@H](Cc1c[nH]cn1)C(=O)N[C@@H](CC(C)C)C(=O)N1CCC[C@H]1C(=O)N[C@@H](Cc1ccccc1)C(=O)N[C@@H](CCCNC(=N)N)C(=O)N1CCC[C@H]1C(=O)N[C@@H](CC(N)=O)C(=O)N[C@@H](CCSC)C(=O)N[C@@H](CC(N)=O)C(=O)N[C@@H](CC(=O)O)C(=O)N[C@H](C(=O)N[C@@H](Cc1ccccc1)C(=O)N[C@H](C(=O)NCC(=O)N[C@@H](CC(C)C)C(=O)N[C@@H](CC(C)C)C(=O)N[C@@H](CCC(=O)O)C(=O)N[C@@H](CCSC)C(=O)N[C@@H](Cc1c[nH]cn1)C(=O)N[C@@H](CC(=O)O)C(=O)N[C@H](C(=O)N[C@@H](Cc1ccccc1)C(=O)N[C@H](C(=O)NCC(=O)N[C@@H](CC(C)C)C(=O)N[C@@H](CCSC)C(N)=O)C(C)C)[C@@H](C)CC)C(C)C)[C@@H](C)CC [zfNKBb] (H-STGINREAHLPFRPNMNDIFVGLLEMHDIFVGLM-NH2) | – | – | – | – |
| 0.18 ± 0.52 | 1.25 | 0.032 | 25.51 ± 0.23 | 5.47 ± 0.43 nM | 0.51 ± 0.36 | CC[C@H](C)[C@H](NC(=O)[C@H](CC(=O)O)NC(=O)[C@H](CC(N)=O)NC(=O)[C@@H](N)Cc1ccc(O)cc1)C(=O)N[C@@H](CC(=O)O)C(=O)N[C@@H](Cc1ccc(O)cc1)C(=O)N[C@@H](CC(=O)O)C(=O)N[C@@H](CO)C(=O)N[C@@H](Cc1ccccc1)C(=O)N[C@H](C(=O)NCC(=O)N[C@@H](CC(C)C)C(=O)N[C@@H](CCSC)C(N)=O)C(C)C [zfNKF] (H-YNDIDYDSFVGLM-NH2) | – | – | – | – |

Further lines, the compound ahead of its results:

| Compound | EC50 (huTAC3R (NK3R); [5]) [nM] | EC50 (huTAC3R (NK3R); [6]) [nM] | EC50 (zfTac3rb; [7]) [nM] | EC50 (zfTac3rb; [8]) [nM] | EC50 (zfTac3ra; [9]) | EC50 (zfTac3ra; [10]) [nM] | EC50 (tiTac3ra; [1]) [nM] | EC50 (tiTac3ra; [2]) | EC50 (tiTac3rb; [3]) [nM] | EC50 (tiTac3rb; [4]) [nM] |
| --- | --- | --- | --- | --- | --- | --- | --- | --- | --- | --- |
| CC[C@H](C)[C@H](NC(=O)[C@H](CC(=O)O)NC(=O)CCC(=O)O)C(=O)N[C@@H](Cc1ccccc1)C(=O)N(C)[C@H](C(=O)NCC(=O)N[C@@H](CC(C)C)C(=O)N[C@@H](CCSC)C(N)=O)[C@@H](C)CC [tiNKB analog, Succ-Asp-Ile-Phe-N(Me)Ile-Gly-Leu-Met-NH2] (Suc-DIF[NMeI]GLM-NH2) | 210.2 ± 1.18 | – | – | – | – | – | 12.9 ± 0.36 | 12.3 ± 0.29 nM | 6.88 ± 0.29 | 1.73 ± 0.46 |
| CSCC[C@H](NC(=O)[C@H](CC(C)C)NC(=O)CNC(=O)[C@@H](NC(=O)[C@H](Cc1ccccc1)NC(=O)[C@H](CO)NC(=O)[C@H](CC(=O)O)NC(=O)[C@H](Cc1ccc(O)cc1)NC(=O)[C@H](CC(=O)O)NC(=O)[C@H](CC(C)C)NC(=O)[C@H](CC(=O)O)NC(=O)[C@H](CC(N)=O)NC(=O)[C@@H](N)Cc1ccc(O)cc1)C(C)C)C(N)=O [tiNKF] (H-YNDLDYDSFVGLM-NH2) | 32.58 ± 0.05 | 0.51 ± 0.24 | – | – | – | – | 3.17 ± 0.18 | 0.2 nM and 0.24 nM | 2.13 ± 0.42 | 0.46 ± 0.49 |
| CC[C@H](C)[C@H](NC(=O)[C@H](CC(=O)O)NC(=O)CCC(=O)O)C(=O)N[C@@H](Cc1ccccc1)C(=O)N(C)[C@H](C(=O)NCC(=O)N[C@@H](CC(C)C)C(=O)N[C@@H](CCSC)C(N)=O)C(C)C [zfNKBa analog, Succ-Asp-Ile-Phe-N(Me)Val-Gly-Leu-Met-NH2] (Suc-DIF[NMeV]GLM-NH2) | 0.03 | 11.5 ± 0.4 | 0.781 ± 0.15 | 5.79 ± 0.52 | 873.2 ± 0.64 nM | 7.88 ± 1.89 | – | – | – | – |
